Entries after “also recorded” stand apart in the source; their conditions may differ.

Series [1] has as its system glioblastoma multiform-tumor cells. The series can be described thus: tissue-culture of glioblastoma multiform tumor cells.
For series [2] the following is noted: cited from earlier work.
The test system of series [3] is neuronal (HT22) tumor cell line. The series can be described thus: growth inhibition of neuronal tumor cell line in cell culture. Format: cell-based, mouse. The protocol: (§1) For the latter cell line, however, the experiments are not complete as yet. […] The effect was concentration-dependent. […] The tumor cells were inhibited selectively beginning after 30 minutes. Following 1 to 3 hours about 90% of the tumor cells were inhibited. For the cell culture, cells were used in RPM1 1640 medium and plated in Falcon flasks.

In series [4] the test system is mixed neuronal and glial (U373) tumor cell line. The series can be described thus: growth inhibition of mixed neuronal and glial tumor cell line in cell culture. To be noted: experiments are not complete as yet. Format: cell-based, human. On the procedure: as §1
The test system of series [5] is CNS tumor cell lines (HT22, C6, U373). Nature of the series: inhibition of CNS tumor cells in culture (lines reported together), cytological changes recorded over time. Format: cell-based. To be noted: for time after which inhibition of tumor cells started: Results section (HT22, C6).
Series [6] has as its system glial (C6) tumor cell line. Nature of the series: growth inhibition of glial tumor cell line in cell culture. Format: cell-based, rat. On the procedure:
as §1

The subject of series [7] is primary CNS-cells (brain cells of rat fetuses). The series can be described thus: effect on primary CNS cells in cell culture. Format: cell-based.
Setting [8] is: following 1 to 3 hours, Example 1.
Where [9] appears, read: following about 1 to 2 hours, Results section.

`O=S1(=O)CCN(CN2CCS(=O)(=O)NC2)CN1` [Taurolidine, Bis-(1,1-dioxoperhydro-1,2,4-thiadiazinyl-4)methane]: in series [1], the “concentration that inhibits or kills tumor cells in tissue-culture” value was 0.1 to 4 mg/mL. Moreover, the water solubility entry in series [2] is on record as “up to 2%”. In addition, the “direct inhibition of growth of tumor cell line” value in series [3], in series [4] and in series [6] was “inhibit directly the growth” each time. In addition, in series [5], the “time after which inhibition of tumor cells started” value amounted to 10 min. Further, the tumor cells inhibited result in series [5] (setting [8]) was “about 90%”; in series [5] (setting [9]) it was 90%.
`O=S1(=O)CCNCN1` [Taurultam]: the “direct inhibition of growth of tumor cell line” value in series [3], in series [4] and in series [6] was “inhibit directly the growth” each time. In addition, in series [7] (following 48 hours), the “cytological effect on primary CNS-cells” value is recorded as “no significant cytological effect”. Besides, the “effect on CNS nerve cells, including stem cells of embryo meningeal cells” value in series [7] (following administration of Taurolidine/Taurultam solutions) is “remain unaffected”. For the same compound, the “growth inhibition of normal/primary central nervous system cells (selectivity versus tumor cells)” value in series [7] (primary cell lines of fetal rat central nervous system, compared to tumor cells) is “required significantly higher concentrations and a significantly longer contact time for inhibition; also recorded: not significantly inhibited”. Also, in series [5], the “effectiveness relative to Taurolidine” value is on record as “almost twice as effective as Taurolidine”. The “time after which selective inhibition of tumor cells began” value in series [5] (Example 1) came to 30 min. Besides, the “time after which inhibition of tumor cells started” value in series [5] amounted to 10 min. In addition, the tumor cells inhibited result in series [5] (setting [8]) is given as “about 90%”; in series [5] (setting [9]) it was 90%.
